The text below walks through data of publication PMC6429262, “Design and Synthesis of Novel Anti-Proliferative Emodin Derivatives and Studies on their Cell Cycle Arrest, Apoptosis Pathway and Migration” (Molecules, 2019).

One test concerns HepG2 cells. Put plainly: CellTiter-Glo Luminescent Cell Viability Assay, HepG2. To be noted: HepG2 cells, 48 h, mean of three independent experiments. It counts as cell-based, human. As to the method: (§1) The in vitro anti-proliferative activities of all the novel synthesized compounds were evaluated against HepG2 cells and MCF-7 cells by CellTiter-Glo® Luminescent Cell Viability Assay, using paclitaxel (a clinically used drug) as a positive control. Emodin (1) and compound 2 were also included for comparison.
(§2) HepG2 cells and MCF-7 cells were purchased from American Type Culture Collection (ATCC, Manassas, VA, USA). Cells were cultured in T75 flask (430641, Corning, New York, NY, USA), supplemented with high-glucose DMEM medium (Dulbecco’s modified Eagle’s medium, 11965-092, Gibco, New York, NY, USA) containing 10% Fetal bovine serum (FBS) and 1% penicillin (100 units/mL)-streptomycin (100 µg/mL) in a humidified incubator at 37 °C under 5% CO2 and 95% relative humidity (RH) atmosphere. The cells were harvested for metabolomics experiments using cell scrapers.
(§3) HepG2 cells and MCF-7 cells in 40 µL DMEM supplemented with 10% FBS were seeded at a density of 500 cells/well in 384-well cell culture plate (3570, Corning), respectively. After 24 h, the medium was substituted with fresh medium containing various sample solutions in DMSO (0.5%, v/v) at a dose range of 0.14–100 µM with 3-fold serial dilutions, and cells were cultured for another 48 h. Cells were cultured in medium without samples but 0.5% DMSO served as a control. All measurements were determined in triplicate for each treatment. After the sample treatment for 48 h, 20 µL CellTiter-Glo (G7573, Promega, Fitchburg, WI, USA) was added to each well containing cells and the contents were mixed for 2 min on an orbital shaker to induce cell lysis. The plates were then incubated at room temperature for 20 min to stabilize the luminescent signal. The luminescence was recorded on an Envision 2014 (Perkin Elmer, Waltham, MA, UAS). The IC50 values represented the samples’ concentrations required to inhibit 50% of cell proliferation and were calculated from a calibration curve by linear regression using GraphPad Prism 7.0 software (GraphPad Software, San Diego, CA, USA).

A further test has as its system MCF-7 cells. Put plainly: CellTiter-Glo Luminescent Cell Viability Assay, MCF-7. The format is cell-based, human. Conditions: for IC50: MCF-7 cells, 48 h, mean of three independent experiments. As to the method:
as §1, §2, §3

Another test relates to L02 cells. Put plainly: Cytotoxic activity against human normal liver cells (L02). The format is cell-based. To be noted: Homo sapiens, L02, human normal liver L02 cells.

Turning to `Cc1cc(O)c2c(c1)C(=O)c1cc(OCCOC(=O)[C@@H](C)N)cc(O)c1C2=O` [Compound 3b, (R)-1-(2-(4,5-Dihydroxy-7-methyl-9,10-dioxo-9,10-dihydroanthracen-2-yloxy)ethoxy)-1-oxopropan-2-aminium 2,2,2-trifluoroacetate], the IC50 in the test on HepG2 cells (Homo sapiens, HepG2, 48 h) was 8.22 ± 0.13 µM; in the test on MCF-7 cells (Homo sapiens, MCF7, 48 h), 8.99 ± 0.64 µM; in the test with L02 cells it was 33.6 ± 0.36 µM.

Regarding `Cc1cc(O)c2c(c1)C(=O)c1cc(OCCOC(=O)[C@H](C)N)cc(O)c1C2=O` [Compound 3c, (S)-1-(2-(4,5-Dihydroxy-7-methyl-9,10-dioxo-9,10-dihydroanthracen-2-yloxy)ethoxy)-1-oxopropan-2-aminium 2,2,2-trifluoroacetate], the IC50 came to 9.52 ± 0.22 µM in the test on HepG2 cells (Homo sapiens, HepG2, 48 h); 10.2 ± 0.96 µM with MCF-7 cells (Homo sapiens, MCF7, 48 h); 37.3 ± 0.78 µM in the test with L02 cells.

As to `Cc1cc(O)c2c(c1)C(=O)c1cc(OCCOC(=O)[C@@H](N)Cc3ccccc3)cc(O)c1C2=O` [Compound 3x, (S)-1-(2-(4,5-Dihydroxy-7-methyl-9,10-dioxo-9,10-dihydroanthracen-2-yloxy)ethoxy)-1-oxo-3-phenyl-propan-2-aminium 2,2,2-trifluoroacetate], the IC50 in the test with HepG2 cells (Homo sapiens, HepG2, 48 h) stood at 16.2 ± 0.36 µM; in the test with MCF-7 cells (Homo sapiens, MCF7, 48 h), 18.1 ± 0.32 µM.

With `Cc1cc(O)c2c(c1)C(=O)c1cc(OCCOC(=O)[C@H](N)Cc3ccc(O)cc3)cc(O)c1C2=O` [Compound 3y, (R)-1-(2-(4,5-Dihydroxy-7-methyl-9,10-dioxo-9,10-dihydroanthracen-2-yloxy)ethoxy)-3-(4-hydroxyphenyl)-1-oxopropan-2-aminium 2,2,2-trifluoroacetate], the half-maximal inhibitory concentration (IC50) amounted to 20.3 ± 1.4 µM with HepG2 cells (Homo sapiens, HepG2, 48 h) and 38.3 ± 1.92 µM in the test on MCF-7 cells (Homo sapiens, MCF7, 48 h).

Turning to `CN[C@H](C)C(=O)OCCOc1cc(O)c2c(c1)C(=O)c1cc(C)cc(O)c1C2=O` [Compound 4a, (R)-1-(2-(4,5-Dihydroxy-7-methyl-9,10-dioxo-9,10-dihydroanthracen-2-yloxy)ethoxy)-N-methyl-1-oxo-propan-2-aminium 2,2,2-trifluoroacetate], the IC50 in the test on HepG2 cells (Homo sapiens, HepG2, 48 h) stood at 13.7 ± 0.89 µM; in the test with MCF-7 cells (Homo sapiens, MCF7, 48 h) it was 23.2 ± 0.33 µM.

For the compound `CN[C@@H](C)C(=O)OCCOc1cc(O)c2c(c1)C(=O)c1cc(C)cc(O)c1C2=O.O=C(O)C(F)(F)F` [Compound 4b, (S)-1-(2-(4,5-Dihydroxy-7-methyl-9,10-dioxo-9,10-dihydroanthracen-2-yloxy)ethoxy)-N-methyl-1-oxo-propan-2-aminium 2,2,2-trifluoroacetate], the IC50 with HepG2 cells (Homo sapiens, HepG2, 48 h) is 40 ± 2.85 µM; with MCF-7 cells (Homo sapiens, MCF7, 48 h), 68.8 ± 2.25 µM. In addition, in the test with MCF-7 cells (MCF-7 cell lines), the “activity reduction compared to emodin (1)” value was 6 fold.

Turning to `Cc1cc(O)c2c(c1)C(=O)c1cc(OCCOC(=O)[C@@H](C)N(C)C)cc(O)c1C2=O` [Compound 5a, (R)-1-(2-(4,5-Dihydroxy-7-methyl-9,10-dioxo-9,10-dihydroanthracen-2-yloxy)ethoxy)-N,N-dimethyl-1-oxo-propan-2-aminium 2,2,2-trifluoroacetate], the IC50 with HepG2 cells (Homo sapiens, HepG2, 48 h) turned out to be 18.1 ± 2.79 µM; in the test on MCF-7 cells (Homo sapiens, MCF7, 48 h), 25.2 ± 1.92 µM.

With `Cc1cc(O)c2c(c1)C(=O)c1cc(OCCOC(=O)[C@H](C)N(C)C)cc(O)c1C2=O` [Compound 5b, (S)-1-(2-(4,5-Dihydroxy-7-methyl-9,10-dioxo-9,10-dihydroanthracen-2-yloxy)ethoxy)-N,N-dimethyl-1-oxo-propan-2-aminium 2,2,2-trifluoroacetate], the concentration for half-maximal inhibition (IC50) turned out to be 18.6 ± 2.07 µM with HepG2 cells (Homo sapiens, HepG2, 48 h) and 16.2 ± 0.67 µM in the test on MCF-7 cells (Homo sapiens, MCF7, 48 h).

Regarding `Cc1cc(O)c2c(c1)C(=O)c1cc(OCCCOC(=O)[C@H](C)N)cc(O)c1C2=O` [Compound 7b, (S)-1-(3-(4,5-Dihydroxy-7-methyl-9,10-dioxo-9,10-dihydroanthracen-2-yloxy)propoxy)-1-oxopropan-2-aminium 2,2,2-trifluoroacetate], the IC50 with HepG2 cells (Homo sapiens, HepG2, 48 h) was determined as 6.47 ± 0.21 µM; in the test with MCF-7 cells (Homo sapiens, MCF7, 48 h), 6.47 ± 0.18 µM.

In the case of `Cc1cc(O)c2c(c1)C(=O)c1cc(OCCCCOC(=O)[C@@H](C)N)cc(O)c1C2=O` [Compound 7c, (R)-1-(4-(4,5-Dihydroxy-7-methyl-9,10-dioxo-9,10-dihydroanthracen-2-yloxy)butoxy)-1-oxopropan-2-aminium 2,2,2-trifluoroacetate], the IC50 with HepG2 cells (Homo sapiens, HepG2, 48 h) worked out at 11.4 ± 1.69 µM; in the test with MCF-7 cells (Homo sapiens, MCF7, 48 h) it was 12.7 ± 0.55 µM.

`Cc1cc(O)c2c(c1)C(=O)c1cc(OCCCCOC(=O)[C@H](C)N)cc(O)c1C2=O` [Compound 7d, (S)-1-(4-(4,5-Dihydroxy-7-methyl-9,10-dioxo-9,10-dihydroanthracen-2-yloxy)butoxy)-1-oxopropan-2-aminium 2,2,2-trifluoroacetate]: the IC50 is 11 ± 1.47 µM in the test on HepG2 cells (Homo sapiens, HepG2, 48 h) and 14.9 ± 0.57 µM in the test with MCF-7 cells (Homo sapiens, MCF7, 48 h).

In the case of `Cc1cc(O)c2c(c1)C(=O)c1cc(OCCCCCOC(=O)[C@@H](C)N)cc(O)c1C2=O` [Compound 7e, (R)-1-(5-(4,5-Dihydroxy-7-methyl-9,10-dioxo-9,10-dihydroanthracen-2-yloxy)pentyloxy)-1-oxopropan-2-aminium 2,2,2-trifluoroacetate], the IC50 in the test on HepG2 cells (Homo sapiens, HepG2, 48 h) worked out at 8.58 ± 0.77 µM; with MCF-7 cells (Homo sapiens, MCF7, 48 h), 9.11 ± 0.67 µM; with L02 cells it was 27.7 ± 0.54 µM.

For `Cc1cc(O)c2c(c1)C(=O)c1cc(OCCCCCOC(=O)[C@H](C)N)cc(O)c1C2=O` [Compound 7f, (S)-1-(5-(4,5-Dihydroxy-7-methyl-9,10-dioxo-9,10-dihydroanthracen-2-yloxy)pentyloxy)-1-oxopropan-2-aminium 2,2,2-trifluoroacetate], the IC50 in the test with HepG2 cells (Homo sapiens, HepG2, 48 h) stood at 10.6 ± 0.97 µM; with MCF-7 cells (Homo sapiens, MCF7, 48 h), 15.8 ± 1.45 µM; with L02 cells, 24.3 ± 0.68 µM.

Consider `Cc1cc(O)c2c(c1)C(=O)c1cc(OCCOCCOC(=O)[C@@H](C)N)cc(O)c1C2=O` [Compound 7g, (R)-1-(2-(2-(4,5-Dihydroxy-7-methyl-9,10-dioxo-9,10-dihydroanthracen-2-yloxy)ethoxy)ethoxy)-1-oxo-propan-2-aminium 2,2,2-trifluoroacetate], for which the half-maximal inhibitory concentration (IC50) in the test on HepG2 cells (Homo sapiens, HepG2, 48 h) came to 15.2 ± 0.66 µM; in the test with MCF-7 cells (Homo sapiens, MCF7, 48 h) it was 12.6 ± 0.46 µM.

On to `Cc1cc(O)c2c(c1)C(=O)c1cc(OCCOCCOC(=O)[C@H](C)N)cc(O)c1C2=O` [Compound 7h, (S)-1-(2-(2-(4,5-Dihydroxy-7-methyl-9,10-dioxo-9,10-dihydroanthracen-2-yloxy)ethoxy)ethoxy)-1-oxo-propan-2-aminium 2,2,2-trifluoroacetate], for which the IC50 with HepG2 cells (Homo sapiens, HepG2, 48 h) turned out to be 11.4 ± 0.47 µM; in the test on MCF-7 cells (Homo sapiens, MCF7, 48 h), 12.5 ± 0.44 µM.

Turning to `Cc1cc(O)c2c(c1)C(=O)c1cc(OCCOCCOCCOC(=O)[C@@H](C)N)cc(O)c1C2=O` [Compound 7i, (R)-1-(2-(2-(2-(4,5-Dihydroxy-7-methyl-9,10-dioxo-9,10-dihydroanthracen-2-yloxy)ethoxy)ethoxy)ethoxy)-1-oxopropan-2-aminium 2,2,2-trifluoroacetate], the IC50 stood at 28.7 ± 0.87 µM with HepG2 cells (Homo sapiens, HepG2, 48 h) and 20.8 ± 1.87 µM with MCF-7 cells (Homo sapiens, MCF7, 48 h).

For `Cc1cc(O)c2c(c1)C(=O)c1cc(OCCOCCOCCOC(=O)[C@H](C)N)cc(O)c1C2=O` [Compound 7j, (S)-1-(2-(2-(2-(4,5-Dihydroxy-7-methyl-9,10-dioxo-9,10-dihydroanthracen-2-yloxy)ethoxy)ethoxy)ethoxy)-1-oxopropan-2-aminium 2,2,2-trifluoroacetate], the IC50 in the test with HepG2 cells (Homo sapiens, HepG2, 48 h) amounted to 31.9 ± 2.77 µM; in the test on MCF-7 cells (Homo sapiens, MCF7, 48 h), 25.6 ± 0.58 µM.

On to `Cc1cc(O)c2c(c1)C(=O)c1cc(OCCOCCOCCOCCOC(=O)[C@@H](C)N)cc(O)c1C2=O` [Compound 7k, (R)-1-(4,5-Dihydroxy-7-methyl-9,10-dioxo-9,10-dihydroanthracen-2-yloxy)-13-oxo-3,6,9,12-tetraoxapenta-decan-14-aminium 2,2,2-trifluoroacetate], for which the IC50 in the test with HepG2 cells (Homo sapiens, HepG2, 48 h) worked out at 37.2 ± 2.44 µM; in the test with MCF-7 cells (Homo sapiens, MCF7, 48 h) it was 37.8 ± 2.44 µM.

Turning to `Cc1cc(O)c2c(c1)C(=O)c1cc(OCCOCCOCCOCCOC(=O)[C@H](C)N)cc(O)c1C2=O` [Compound 7l, (S)-1-(4,5-Dihydroxy-7-methyl-9,10-dioxo-9,10-dihydroanthracen-2-yloxy)-13-oxo-3,6,9,12-tetraoxa-pentadecan-14-aminium 2,2,2-trifluoroacetate], the half-maximal inhibitory concentration (IC50) with HepG2 cells (Homo sapiens, HepG2, 48 h) turned out to be 60.6 ± 4.26 µM; with MCF-7 cells (Homo sapiens, MCF7, 48 h), 41.8 ± 2.24 µM.

For the compound `CC(=O)O[C@H]1C(=O)[C@@]2(C)[C@H]([C@H](OC(=O)c3ccccc3)[C@]3(O)C[C@H](OC(=O)[C@H](O)[C@@H](NC(=O)c4ccccc4)c4ccccc4)C(C)=C1C3(C)C)[C@]1(OC(C)=O)CO[C@@H]1C[C@@H]2O` [Paclitaxel, reference compound], the IC50 in the test with HepG2 cells (Homo sapiens, HepG2, 48 h) is 10.3 ± 0.26 µM; in the test on MCF-7 cells (Homo sapiens, MCF7, 48 h), 4.89 ± 0.11 µM.

For the compound “(S)-1-(2-(4,5-Dihydroxy-7-methyl-9,10-dioxo-9,10-dihydroanthracen-2-yloxy)ethoxy)-3-(4-hydroxyphenyl)-1-oxopropan-2-aminium 2,2,2-trifluoroacetate [Compound 3z]”, the half-maximal inhibitory concentration (IC50) stood at 14.1 ± 1.22 µM in the test with HepG2 cells and 17.3 ± 0.26 µM in the test with MCF-7 cells.
